Results taken from patent US12539292B2, “BRM targeting compounds and associated methods of use” (Arvinas Operations, Inc., priority 2018, dated 2026).

Biological target: T1, BRM (Homo sapiens, UniProt P51531)
T1 construct: In-Cell Western Screen of BRM Degradation in SW1573 Cells; endogenous in cells; host or cells: SW1573
Assay: In-cell Western screen of BRM degradation in SW1573 cells (Dmax and DC50)
Assay type: cell-based
Conditions: BRM degradation, SW1573 cells, Table 2D; for DC50: read-out: *DC50; for Dmax: read-out: **Dmax (%) (% degraded)
Method in brief: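 SW1573, overnight cpd exposure (18-20 h), 0.1% DMSO final. PFA fix, 0.5% Triton permeabilization, block; IR secondaries at 800/680 nm. Odyssey read → Dmax, DC50.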

T1 sequence (P51531 whole entry): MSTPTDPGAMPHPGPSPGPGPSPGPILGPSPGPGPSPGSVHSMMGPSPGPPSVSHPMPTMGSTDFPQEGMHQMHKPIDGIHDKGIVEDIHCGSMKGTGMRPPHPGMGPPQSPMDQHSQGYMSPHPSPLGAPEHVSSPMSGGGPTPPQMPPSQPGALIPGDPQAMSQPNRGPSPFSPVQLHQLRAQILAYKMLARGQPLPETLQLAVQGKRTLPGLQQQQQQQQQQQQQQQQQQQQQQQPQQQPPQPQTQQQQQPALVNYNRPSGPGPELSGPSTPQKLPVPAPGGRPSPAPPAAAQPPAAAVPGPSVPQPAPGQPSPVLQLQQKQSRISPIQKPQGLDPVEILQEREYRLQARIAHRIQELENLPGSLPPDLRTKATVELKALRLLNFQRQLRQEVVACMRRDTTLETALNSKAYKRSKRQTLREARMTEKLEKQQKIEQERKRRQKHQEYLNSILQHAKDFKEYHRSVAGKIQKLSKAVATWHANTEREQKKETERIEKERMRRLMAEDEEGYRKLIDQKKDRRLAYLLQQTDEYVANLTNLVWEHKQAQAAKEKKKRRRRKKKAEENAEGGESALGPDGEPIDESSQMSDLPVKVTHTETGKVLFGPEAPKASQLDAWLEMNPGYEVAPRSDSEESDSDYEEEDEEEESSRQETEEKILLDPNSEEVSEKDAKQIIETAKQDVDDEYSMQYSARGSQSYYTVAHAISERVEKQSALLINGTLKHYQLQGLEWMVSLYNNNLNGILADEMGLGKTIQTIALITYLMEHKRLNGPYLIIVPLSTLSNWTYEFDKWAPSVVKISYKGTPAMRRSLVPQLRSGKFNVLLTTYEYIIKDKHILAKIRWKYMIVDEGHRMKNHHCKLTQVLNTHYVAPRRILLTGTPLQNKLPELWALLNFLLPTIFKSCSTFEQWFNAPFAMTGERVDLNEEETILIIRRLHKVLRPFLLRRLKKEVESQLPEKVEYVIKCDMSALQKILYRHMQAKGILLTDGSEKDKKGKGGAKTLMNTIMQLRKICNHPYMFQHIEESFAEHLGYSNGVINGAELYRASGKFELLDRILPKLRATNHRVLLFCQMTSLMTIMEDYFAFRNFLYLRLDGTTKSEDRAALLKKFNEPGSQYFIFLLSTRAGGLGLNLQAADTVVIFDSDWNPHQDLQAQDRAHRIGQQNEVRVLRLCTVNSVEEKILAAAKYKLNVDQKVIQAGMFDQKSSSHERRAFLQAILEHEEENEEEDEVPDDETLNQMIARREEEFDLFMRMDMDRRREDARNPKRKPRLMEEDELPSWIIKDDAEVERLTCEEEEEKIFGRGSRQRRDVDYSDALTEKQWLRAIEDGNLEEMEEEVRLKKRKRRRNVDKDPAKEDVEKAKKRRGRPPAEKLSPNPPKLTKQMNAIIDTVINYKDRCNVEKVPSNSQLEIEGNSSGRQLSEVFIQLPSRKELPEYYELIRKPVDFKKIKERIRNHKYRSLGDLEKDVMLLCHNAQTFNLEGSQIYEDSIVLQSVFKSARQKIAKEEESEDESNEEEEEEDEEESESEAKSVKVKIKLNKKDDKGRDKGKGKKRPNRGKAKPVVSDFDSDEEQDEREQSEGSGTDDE

Compound | DC50 | Dmax
Cc1ncsc1-c1ccc([C@H](C)NC(=O)[C@@H]2C[C@@H](O)CN2C(=O)[C@H](c2cc(N3CCC(CN4CCC(O[C@H]5C[C@H](CN6CCOC7(CCN(c8cc(-c9ccccc9O)nnc8N)CC7)C6)C5)CC4)CC3)no2)C(C)C)cc1 [compound 609, (2S,4R)-1-((S)-2-(3-(4-((4-((1r,3r)-3-((9-(3-amino-6-(2-hydroxyphenyl)pyridazin-4-yl)-1-oxa-4,9-diazaspiro[5.5]undecan-4-yl)methyl)cyclobutoxy)piperidin-1-yl)methyl)piperidin-1-yl)isoxazol-5-yl)-3-methylbutanoyl)-4-hydroxy-N-((S)-1-(4-(4-methylthiazol-5-yl)phenyl)ethyl)pyrrolidine-2-carboxamide] | > 30 nM | 
Cc1ncsc1-c1ccc([C@H](C)NC(=O)[C@@H]2C[C@@H](O)CN2C(=O)C(c2cc(N3CCC(CN4CCC(O[C@H]5C[C@H](CN6CCOC7(CCN(c8cc(-c9ccccc9O)nnc8N)CC7)C6)C5)CC4)CC3)no2)C(C)C)cc1 (stereo partly drawn) [compound 610, (2S,4R)-1-((R)-2-(3-(4-((4-((1r,3r)-3-((9-(3-amino-6-(2-hydroxyphenyl)pyridazin-4-yl)-1-oxa-4,9-diazaspiro[5.5]undecan-4-yl)methyl)cyclobutoxy)piperidin-1-yl)methyl)piperidin-1-yl)isoxazol-5-yl)-3-methylbutanoyl)-4-hydroxy-N-((S)-1-(4-(4-methylthiazol-5-yl)phenyl)ethyl)pyrrolidine-2-carboxamide] | < 2.5 nM | > 75%
Cc1ncsc1-c1ccc([C@@H](NC(=O)[C@@H]2C[C@@H](O)CN2C(=O)[C@H](c2cc(N3CCC(CN4CCC(O[C@H]5C[C@H](Oc6cc(N7C8CCC7CN(c7cc(-c9ccccc9O)nnc7N)C8)ccn6)C5)CC4)CC3)no2)C(C)C)C(=O)N(C)C2CCC2)cc1 [compound 611, (2S,4R)-1-((2S)-2-(3-(4-((4-((1r,3r)-3-((4-(3-(3-amino-6-(2-hydroxyphenyl)pyridazin-4-yl)-3,8-diazabicyclo[3.2.1]octan-8-yl)pyridin-2-yl)oxy)cyclobutoxy)piperidin-1-yl)methyl)piperidin-1-yl)isoxazol-5-yl)-3-methylbutanoyl)-N-((R)-2-(cyclobutyl(methyl)amino)-1-(4-(4-methylthiazol-5-yl)phenyl)-2-oxoethyl)-4-hydroxypyrrolidine-2-carboxamide] | > 30 nM | 
Cc1ncsc1-c1ccc([C@@H](NC(=O)[C@@H]2C[C@@H](O)CN2C(=O)[C@H](c2cc(N3CCC(CN4CCC(O[C@H]5C[C@H](Oc6cc(N7C8CCC7CN(c7cc(-c9ccccc9O)nnc7N)C8)ccn6)C5)CC4)CC3)no2)C(C)C)C(=O)N(C)C2CCC2)cc1 [compound 612, (2S,4R)-1-((2R)-2-(3-(4-((4-((1r,3r)-3-((4-(3-(3-amino-6-(2-hydroxyphenyl)pyridazin-4-yl)-3,8-diazabicyclo[3.2.1]octan-8-yl)pyridin-2-yl)oxy)cyclobutoxy)piperidin-1-yl)methyl)piperidin-1-yl)isoxazol-5-yl)-3-methylbutanoyl)-N-((R)-2-(cyclobutyl(methyl)amino)-1-(4-(4-methylthiazol-5-yl)phenyl)-2-oxoethyl)-4-hydroxypyrrolidine-2-carboxamide] | < 2.5 nM | > 75%
Cc1ncsc1-c1ccc([C@H](C)NC(=O)[C@@H]2C[C@@H](O)CN2C(=O)[C@H](c2cc(OCCCOc3cc(N4C5CCC4CN(c4cc(-c6ccccc6O)nnc4N)C5)ccn3)no2)C(C)C)cc1 [compound 613, (2S,4R)-1-((2S)-2-(3-(3-((4-(3-(3-amino-6-(2-hydroxyphenyl)pyridazin-4-yl)-3,8-diazabicyclo[3.2.1]octan-8-yl)pyridin-2-yl)oxy)propoxy)isoxazol-5-yl)-3-methylbutanoyl)-4-hydroxy-N-((S)-1-(4-(4-methylthiazol-5-yl)phenyl)ethyl)pyrrolidine-2-carboxamide] | > 30 nM | 
Cc1ncsc1-c1ccc([C@H](C)NC(=O)[C@@H]2C[C@@H](O)CN2C(=O)[C@@H](c2cc(OCCCOc3cc(N4C5CCC4CN(c4cc(-c6ccccc6O)nnc4N)C5)ccn3)no2)C(C)C)cc1 [compound 614, (2S,4R)-1-((2R)-2-(3-(3-((4-(3-(3-amino-6-(2-hydroxyphenyl)pyridazin-4-yl)-3,8-diazabicyclo[3.2.1]octan-8-yl)pyridin-2-yl)oxy)propoxy)isoxazol-5-y1)-3-methylbutanoyl)-4-hydroxy-N-((S)-1-(4-(4-methylthiazol-5-yl)phenyl)ethyl)pyrrolidine-2-carboxamide] | < 2.5 nM | > 75%
Cc1ncsc1-c1ccc([C@H](C)NC(=O)[C@@H]2C[C@@H](O)CN2C(=O)[C@H](c2cc(N3CCC(OC4CCN([C@H]5C[C@H](CN6CCOC7(CCN(c8cc(-c9ccccc9O)nnc8N)CC7)C6)C5)CC4)CC3)no2)C(C)C)cc1 [compound 615, (2S,4R)-1-((S)-2-(3-(4-((1-((1r,3S)-3-((9-(3-amino-6-(2-hydroxyphenyl)pyridazin-4-yl)-1-oxa-4,9-diazaspiro[5.5]undecan-4-yl)methyl)cyclobutyl)piperidin-4-yl)oxy)piperidin-1-yl)isoxazol-5-yl)-3-methylbutanoyl)-4-hydroxy-N-((S)-1-(4-(4-methylthiazol-5-yl)phenyl)ethyl)pyrrolidine-2-carboxamide] | > 30 nM | 
Cc1ncsc1-c1ccc([C@H](C)NC(=O)[C@@H]2C[C@@H](O)CN2C(=O)[C@@H](c2cc(N3CCC(OC4CCN([C@H]5C[C@H](CN6CCOC7(CCN(c8cc(-c9ccccc9O)nnc8N)CC7)C6)C5)CC4)CC3)no2)C(C)C)cc1 [compound 616, (2S,4R)-1-((R)-2-(3-(4-((1-((1r,3R)-3-((9-(3-amino-6-(2-hydroxyphenyl)pyridazin-4-yl)-1-oxa-4,9-diazaspiro[5.5]undecan-4-yl)methyl)cyclobutyl)piperidin-4-yl)oxy)piperidin-1-yl)isoxazol-5-yl)-3-methylbutanoyl)-4-hydroxy-N-((S)-1-(4-(4-methylthiazol-5-yl)phenyl)ethyl)pyrrolidine-2-carboxamide] | < 2.5 nM | > 75%
Cc1ncsc1-c1ccc([C@H](C)NC(=O)[C@@H]2C[C@@H](O)CN2C(=O)[C@H](c2cc(N3CCC(CN4CCC(O[C@H]5C[C@H](N6CCOC7(CCN(c8cc(-c9ccccc9O)nnc8N)CC7)C6)C5)CC4)CC3)no2)C(C)C)cc1 [compound 617, (2S,4R)-1-((S)-2-(3-(4-((4-((1r,3r)-3-(9-(3-amino-6-(2-hydroxyphenyl)pyridazin-4-yl)-1-oxa-4,9-diazaspiro[5.5]undecan-4-yl)cyclobutoxy)piperidin-1-yl)methyl)piperidin-1-yl)isoxazol-5-yl)-3-methylbutanoyl)-4-hydroxy-N-((S)-1-(4-(4-methylthiazol-5-yl)phenyl)ethyl)pyrrolidine-2-carboxamide] | > 30 nM | 
Cc1ncsc1-c1ccc([C@H](C)NC(=O)[C@@H]2C[C@@H](O)CN2C(=O)[C@@H](c2cc(N3CCC(CN4CCC(O[C@H]5C[C@H](N6CCOC7(CCN(c8cc(-c9ccccc9O)nnc8N)CC7)C6)C5)CC4)CC3)no2)C(C)C)cc1 [compound 618, (2S,4R)-1-((R)-2-(3-(4-((4-((1r,3r)-3-(9-(3-amino-6-(2-hydroxyphenyl)pyridazin-4-yl)-1-oxa-4,9-diazaspiro[5.5]undecan-4-yl)cyclobutoxy)piperidin-1-yl)methyl)piperidin-1-yl)isoxazol-5-yl)-3-methylbutanoyl)-4-hydroxy-N-((S)-1-(4-(4-methylthiazol-5-yl)phenyl)ethyl)pyrrolidine-2-carboxamide] | < 2.5 nM | > 75%
Cc1ncsc1-c1ccc([C@H](C)NC(=O)[C@@H]2C[C@@H](O)CN2C(=O)[C@H](c2cc(OCCC3CCN(C[C@H]4C[C@H](N5CCC(C(C)n6cc(-c7cc(-c8ccccc8O)nnc7N)cn6)CC5)C4)CC3)no2)C(C)C)cc1 (stereo partly drawn) [compound 619, (2S,4R)-1-((2S)-2-(3-(2-(1-(((1r,3S)-3-(4-(1-(4-(3-amino-6-(2-hydroxyphenyl)pyridazin-4-yl)-1H-pyrazol-1-yl)ethyl)piperidin-1-yl)cyclobutyl)methyl)piperidin-4-yl)ethoxy)isoxazol-5-yl)-3-methylbutanoyl)-4-hydroxy-N-((S)-1-(4-(4-methylthiazol-5-yl)phenyl)ethyl)pyrrolidine-2-carboxamide] | > 30 nM | 
CC(C)[C@H](C(=O)N1C[C@H](O)C[C@H]1C(=O)N[C@@H](C)c1ccc(-n2ccnc2N)cc1)c1cc(N2CCC(CN3CCC(O[C@H]4C[C@H](Oc5cc(N6C7CCC6CN(c6cc(-c8ccccc8O)nnc6N)C7)ccn5)C4)CC3)CC2)no1 [compound 620, (2S,4R)-N-((S)-1-(4-(2-amino-1H-imidazol-1-yl)phenyl)ethyl)-1-((2S)-2-(3-(4-((4-((1r,3r)-3-((4-(3-(3-amino-6-(2-hydroxyphenyl)pyridazin-4-yl)-3,8-diazabicyclo[3.2.1]octan-8-yl)pyridin-2-yl)oxy)cyclobutoxy)piperidin-1-yl)methyl)piperidin-1-yl)isoxazol-5-yl)-3-methylbutanoyl)-4-hydroxypyrrolidine-2-carboxamide] | > 30 nM | 
CC(C)[C@@H](C(=O)N1C[C@H](O)C[C@H]1C(=O)N[C@@H](C)c1ccc(-n2ccnc2N)cc1)c1cc(N2CCC(CN3CCC(O[C@H]4C[C@H](Oc5cc(N6C7CCC6CN(c6cc(-c8ccccc8O)nnc6N)C7)ccn5)C4)CC3)CC2)no1 [compound 621, (2S,4R)-N-((S)-1-(4-(2-amino-1H-imidazol-1-yl)phenyl)ethyl)-1-((2R)-2-(3-(4-((4-((1r,3r)-3-((4-(3-(3-amino-6-(2-hydroxyphenyl)pyridazin-4-yl)-3,8-diazabicyclo[3.2.1]octan-8-yl)pyridin-2-yl)oxy)cyclobutoxy)piperidin-1-yl)methyl)piperidin-1-yl)isoxazol-5-yl)-3-methylbutanoyl)-4-hydroxypyrrolidine-2-carboxamide] | < 2.5 nM | > 75%
